Key:
[1] = tested on: MIN6 cells; test: Western Blot / immunofluorescence of insulin signaling related molecules in insulin-resistant MIN6 cells; format: cell-based, mouse
Experimental: MIN6 cells were seeded in culture dishes at the appropriate density and cultured as described in step 2.1 to a confluency of about 80%. Cells were divided into the following 5 groups: (1) normal control group (Con): cultured with blank 1640 medium; (2) insulin resistance model panel (IR): treatment with 0.125 mmol/L PA for 24 h to induce establishment of a MIN6 cell insulin resistance model; (3) 3 μmol/L ADD-16 administration group (ADD I): 3 μmol/L ADD-16 intervention was given for 24 h after successful establishment of the insulin resistance model; (4) 10 μmol/L ADD-16 administration group (ADD II): 10 μmol/L ADD-16 intervention was given for 24 h after successful establishment of the insulin resistance model; (5) TAK875 control group (TAK875): 10 μmol/L TAK875 was administered as a positive control drug intervention for 24 h after successful establishment of the insulin resistance model. At the end of the group administration, groups of cells were harvested for WB or IF experiments.

[2] = tested on: MIN6 cells; test: Glucose-stimulated insulin secretion in MIN6 cells (GSIS); format: cell-based, mouse
Experimental: MIN6 cells were seeded in a 24-well plate at an appropriate concentration, and after continued culture until cell confluence exceeded 80%, administration was carried out in the following groups: normal control group (Con), ADD group (ADD-16 was administered at a concentration of 100 μmol/L, 30 μmol/L, 10 μmol/L, 3 μmol/L, 1 μmol/L, 0.3 μmol/L, respectively), TAK875 group (administered at a concentration of 10 μmol/L, 3 μmol/L, 1 μmol/L, respectively), with 6 replicates per group. Incubation was continued for 24 h after group dosing, media was aspirated and gently rinsed 2 times with a sugar-free KRB buffer. After rinsing, the sugar-free KRB buffer was added and incubated at 37° C. for 10 min. At the end of the incubation, the buffer was aspirated and each well was exhausted as much as possible. Each group was dosed with 16.7 mmol/L glucose in a KRB buffer and incubated at 37° C. for 1 hour. All media in the wells was aspirated after 1 h, centrifuged at 2000 rmp/min for 20 min, and the supernatant was collected and stored at −20° C. The insulin content was measured for each group following the instructions of the mouse insulinase ELISA assay kit.
Insulinase ELISA assay: the supernatant of each set of media was taken and processed according to the procedure of Table 1:
The final mixture was mixed well with shaking and the OD was read on a microplate reader at 450 nm. The insulin content of each group was calculated.

[3] = Tissue distribution kinetics in SD rats (LC-MS/MS); format: in vivo, rat; conditions: gavage 10 mg/kg
Experimental: 40 healthy male SD rats, weighing 200-220 g, were housed adaptively for three days and fasted for 12 h prior to the experiment. All rats were randomly divided into 5 groups, 8 for each group. Each group of rats was gavaged with the ADD-16 solution (10 mg/kg), anesthetized at 10, 30, 60, 240, 480 min after administration, and sacrificed by exsanguination of the abdominal aorta, respectively. Each group of rats was sacrificed by dissection to collect tissues such as heart, liver, spleen, lung, kidney, brain, and islets. After washing the tissue samples with physiological saline to clean surface blood, the tissue samples were blotted with filter paper to dry surface moisture, weighed, and stored at −80° C. The assay was performed by natural thawing at room temperature and the concentration of ADD-16 in each tissue was determined using the LC-MS/MS method.

[4] = tested on: STZ-induced T2DM rats; test: Oral glucose tolerance test (OGTT) in T2DM rats; format: in vivo, rat; conditions: artificially induced T2DM rats
Experimental: 150 male SD rats, housed in cages in a clean constant temperature (23±2° C.) and humidity (55±10%) animal house, were manually adjusted on a daily 12 h/12 h diurnal light cycle with free access to water. After 3 days of adaptive feeding, 150 rats were randomly divided into normal and model groups. The normal (Con, n=15) group of rats remained on raw chow and the model group (n=135) of rats were given high fat high sugar chow. All rats were fed twice daily and the amount of feed was adjusted as needed to ensure adequate feed. After 8 weeks of group feeding, the model group rats were given an intraperitoneal injection of 25 mg/kg STZ solution with a 12 h fast prior to injection. After injection, feeding was continued as in the original method, blood was taken from the tail vein at 72 h for blood glucose measurement, and rats with fasting blood glucose levels ≥11.1 mmol/L on different days were screened for successful artificial induction of T2DM and administered in groups for the next experiment. 135 rats with successful modeling were randomly divided into 9 groups: […] […] Relevant indicators of lipid metabolism were measured after the end of the study. At the final week of the Oral Glucose Tolerance Test (OGTT) test, each group of rats was fasted from water 16 h after gavage administration and the fasting blood glucose value (as 0 min) was measured for each rat. […]

SMILES: CC1(C)CC(=O)C2=C(C1)NC1=C(C(=O)CC(C)(C)C1)C2c1ccc(OCc2ccc(C(=O)O)cc2)c(Br)c1 [ADD-16]
- GPR40 expression, immunofluorescence staining (in words) ([1]; MIN6 cells): upregulate GPR40 expression
- expression of insulin signaling-related molecules, Western Blot (in words) ([1]; insulin-resistant MIN6 cells, 24 h, P<0.001): upregulate GPR40, PGC-1α, P-P38, P-EP300, PPARγ, P-AKT, PI3K, IRS1 and GLUT4 expression
- insulin secretion compared to the Con group (in words) ([2]; 100 μmol/L, 24 h): decreased insulin secretion
- glucose-stimulated insulin secretion (in words) ([2]; 24 h, 16.7 mmol/L glucose, concentration dependent): promote glucose-stimulated insulin secretion
- insulinotropic effect compared with TAK875 (in words) ([2]; same concentrations): significantly better than TAK875
- islet targeting (in words) [3]: well-defined islet targeting
- tissue Cmax order ([3]; AUC 0-8 order the same): liver>islets>lung>kidney>heart>spleen>brain
- blood-brain barrier penetration (in words) ([3]; lowest concentration in brain tissue): does not readily penetrate the blood-brain barrier
- glucose tolerance (OGTT, in words) [4]: increase glucose tolerance

Reference: US20230124720A1, “APPLICATION OF ACRIDINEDIONE COMPOUND IN PREPARATION OF ANTI-DIABETIC DRUGS” (THE FOURTH MILITARY MEDICAL UNIVERSITY, priority 2020, published 2023)
